Experimental data as given in ChEMBL document CHEMBL1671749, “blaROB-1 presence on pB1000 in Haemophilus influenzae is widespread, and variable cefaclor resistance is associated with altered penicillin-binding proteins” (2010).
In brackets after ≈: the same amount, converted by molar mass.

Columns and labels:
Format in all cases: functional
[1] = test system: Haemophilus influenzae; assay: Antibacterial activity against ROB-1 and TEM-1 producing ICE- positive Haemophilus influenzae F52 by Etest method
[2] = test system: Haemophilus influenzae; assay: Antibacterial activity against ROB-1 producing ICE- negative Haemophilus influenzae H62 by broth microdilution method
[3] = test system: Haemophilus influenzae; assay: Antibacterial activity against ROB-1 producing ICE- negative Haemophilus influenzae F3 by Etest method
[4] = test system: Haemophilus influenzae; assay: Antibacterial activity against ROB-1 producing ICE- negative Haemophilus influenzae F50 by broth microdilution method
[5] = test system: Haemophilus influenzae; assay: Antibacterial activity against ROB-1 producing ICE- positive Haemophilus influenzae F45 harboring D350N, V547I and N569S mutations in PBP3 by Etest method
[6] = test system: Haemophilus influenzae; assay: Antibacterial activity against ROB-1 producing ICE- positive Haemophilus influenzae F52 by broth microdilution method
[7] = test system: Haemophilus influenzae; assay: Antibacterial activity against […] by broth microdilution method
[8] = test system: Haemophilus influenzae; assay: Antibacterial activity against ROB-1 producing ICE- negative Haemophilus influenzae H23 by Etest method
[9] = test system: Haemophilus influenzae; assay: Antibacterial activity against ROB-1 producing ICE- positive Haemophilus influenzae F49 harboring D350N, V547I and N569S mutations in PBP3 by broth microdilution method
[10] = test system: Haemophilus influenzae; assay: Antibacterial activity against ROB-1 producing ICE- negative Haemophilus influenzae H23 by broth microdilution method
[11] = test system: Haemophilus influenzae; assay: Antibacterial activity against ROB-1 producing ICE- negative Haemophilus influenzae Rd transformant harboring plasmid PB1000 by Etest method
[12] = test system: Haemophilus influenzae; assay: Antibacterial activity against ROB-1 producing ICE- positive Haemophilus influenzae F45 harboring D350N, V547I and N569S mutations in PBP3 by broth microdilution method
[13] = test system: Haemophilus influenzae; assay: Antibacterial activity against ROB-1 and TEM-1 producing ICE- positive Haemophilus influenzae F48 by Etest method
[14] = test system: Haemophilus influenzae; assay: Antibacterial activity against ROB-1 and TEM-1 producing ICE- positive Haemophilus influenzae F49 harboring D350N, V547I and N569S mutations in PBP3 by Etest method
[15] = test system: Haemophilus influenzae; assay: Antibacterial activity against ROB-1 producing ICE- negative Haemophilus influenzae F3 by broth microdilution method
[16] = test system: Haemophilus influenzae; assay: Antibacterial activity against ROB-1 producing ICE- positive Haemophilus influenzae F54 harboring V489G, M503R, R517H, V547I and N569S mutations in PBP3 by broth microdilution method
[17] = test system: Haemophilus influenzae; assay: Antibacterial activity against ROB-1 producing ICE- negative Haemophilus influenzae F41 by broth microdilution method
[18] = test system: Haemophilus influenzae; assay: Antibacterial activity against ROB-1 producing ICE- negative Haemophilus influenzae Rd transformant harboring plasmid PB1000 by broth microdilution method
[19] = test system: Haemophilus influenzae; assay: Antibacterial activity against ROB-1 producing ICE- negative Haemophilus influenzae F41 by Etest method
[20] = test system: Haemophilus influenzae; assay: Antibacterial activity against ROB-1 producing ICE- positive Haemophilus influenzae F48 by broth microdilution method
[21] = test system: Haemophilus influenzae; assay: Antibacterial activity against ROB-1 producing ICE- negative Haemophilus influenzae F50 by Etest method
[22] = test system: Haemophilus influenzae; assay: Antibacterial activity against ROB-1 and TEM-1 producing ICE- positive Haemophilus influenzae F47 by Etest method
[23] = test system: Haemophilus influenzae; assay: Antibacterial activity against ROB-1 producing ICE- positive Haemophilus influenzae F47 by broth microdilution method
[24] = test system: Haemophilus influenzae; assay: Antibacterial activity against ROB-1 and TEM-1 producing ICE- positive Haemophilus influenzae F54 harboring V489G, M503R, R517H, V547I and N569S mutations in PBP3 by Etest method
[25] = test system: Haemophilus influenzae; assay: Antibacterial activity against ROB-1 producing ICE- negative Haemophilus influenzae H62 by Etest method
[26] = test system: Haemophilus influenzae; assay: Antibacterial activity against […] by Etest method

Structure (SMILES): N[C@@H](C(=O)N[C@@H]1C(=O)N2C(C(=O)O)=C(Cl)CS[C@H]12)c1ccccc1 [CEFACLOR ANHYDROUS]
- MIC [1]: 6 µg/mL (≈ 16.3 µM)
- MIC [2]: 32 µg/mL (≈ 87 µM)
- MIC [3]: 4 µg/mL (≈ 10.9 µM)
- MIC [4]: 16 µg/mL (≈ 43.5 µM)
- MIC [5]: 24 µg/mL (≈ 65.3 µM)
- MIC [6]: 16 µg/mL (≈ 43.5 µM)
- MIC [7]: 1 µg/mL (≈ 2.72 µM)
- MIC [8]: 2 µg/mL (≈ 5.44 µM)
- MIC [9]: 64 µg/mL (≈ 174 µM)
- MIC [10]: 16 µg/mL (≈ 43.5 µM)
- MIC [11]: 4 µg/mL (≈ 10.9 µM)
- MIC [12]: 64 µg/mL (≈ 174 µM)
- MIC [13]: 6 µg/mL (≈ 16.3 µM)
- MIC [14]: 16 µg/mL (≈ 43.5 µM)
- MIC [15]: 16 µg/mL (≈ 43.5 µM)
- MIC [16]: 64 µg/mL (≈ 174 µM)
- MIC [17]: 32 µg/mL (≈ 87 µM)
- MIC [18]: 32 µg/mL (≈ 87 µM)
- MIC [19]: 4 µg/mL (≈ 10.9 µM)
- MIC [20]: 16 µg/mL (≈ 43.5 µM)
- MIC [21]: 2 µg/mL (≈ 5.44 µM)
- MIC [22]: 4 µg/mL (≈ 10.9 µM)
- MIC [23]: 32 µg/mL (≈ 87 µM)
- MIC [24]: 32 µg/mL (≈ 87 µM)
- MIC [25]: 6 µg/mL (≈ 16.3 µM)
- MIC [26]: 0.5 µg/mL (≈ 1.36 µM)
